As a reminder, the MIC is the lowest concentration that inhibits growth of the organism.

Values after ≈ are worked out from the molar mass of the structure shown. A value given as a limit tells only on which side of the number the result lay.

What all share (assay type): cell-based
In one assay the test system is S. aureus Russell. Nature of the assay: MIC by standard microtitre technique, amoxycillin with and without compound.
The subject of the next assay is K. aerogenes E70. Described as above.
For assay [1], the system named is E. coli JT39. The description is as above.
Assay [2] has as its system E. coli JT39. In words: MIC by standard microtitre technique, ampicillin with and without inhibitor. As to conditions: dilution in trytone soy broth. On the procedure:
(§1) By a standard microtitre technique the MIC values for ampicillin alone, ampicillin and 9-(4-benzyl piperazinyldeoxyclavulanic acid and 9-(4-benzyl)piperazin -1-yldeoxyclavulanic acid alone were determined.

The next assay concerns Kleb. aerogenes E70. The description is as above. Conditions: dilution in trytone soy broth. On the procedure:
as §1

Another assay concerns Staph. aureus Russell. Described as above. As to conditions: dilution in trytone soy broth. On the procedure: as §1
Where [3] appears, read: Amoxycillin + compound, concentration of inhibitor 1.0 µg/ml.
[4] abbreviates: Amoxycillin + compound, concentration of inhibitor 5.0 µg/ml.
[5] abbreviates: Ampicillin + inhibitor at 1µg/ml.
[6] abbreviates: Ampicillin + inhibitor at 5µg/ml.

Take `CCOC(=O)N1CCN(C/C=C2\O[C@@H]3CC(=O)N3[C@H]2C(=O)O)CC1` [Example 4, 9-(4-Ethoxycarbonylpiperazin-1-yl)deoxyclavulanic acid]: the MIC with S. aureus Russell (setting [3]) amounted to 1.25 µg/mL; in the assay on S. aureus Russell (setting [4]) it was 0.3 µg/mL; in the assay with K. aerogenes E70 (setting [3]), 6.2 µg/mL; with K. aerogenes E70 (setting [4]), 1.5 µg/mL; in the assay with E. coli JT39 [1] (setting [3]) it was 31.2 µg/mL; in the assay with E. coli JT39 [1] (setting [4]) it was 4.0 µg/mL.

For the compound `O=C(OCc1ccc([N+](=O)[O-])cc1)[C@H]1/C(=C/CN2CCSCC2)O[C@@H]2CC(=O)N21` [Example 8, p-Nitrobenzyl 9-(thiomorpholino)deoxyclavulanate], the MIC with S. aureus Russell (setting [3]) was 0.62 µg/mL; in the assay on K. aerogenes E70 (setting [3]), 3.1 µg/mL; in the assay with K. aerogenes E70 (setting [4]), 1.6 µg/mL; in the assay on E. coli JT39 [1] (setting [3]), 8.0 µg/mL; with E. coli JT39 [1] (setting [4]) it was 2.0 µg/mL.

For the compound `O=C(O)[C@H]1/C(=C/CN2CCN(Cc3ccccc3)CC2)O[C@@H]2CC(=O)N21` [Example 2, 9-(4-Benzylpiperazin-1-yl)deoxyclavulanic acid], the MIC is 62 µg/mL in the assay on E. coli JT39 [2] (setting [5]); 16 µg/mL in the assay with E. coli JT39 [2] (setting [6]); greater than 500 µg/mL against E. coli JT39 [2] (Inhibitor alone); 25 µg/mL with Kleb. aerogenes E70 (setting [5]); 3.1 µg/mL in the assay with Kleb. aerogenes E70 (setting [6]); 500 µg/mL (≈ 1400 µM) against Kleb. aerogenes E70 (Inhibitor alone). The minimum inhibitory concentration (MIC) with Staph. aureus Russell (setting [5]) was 0.3 µg/mL; in the assay with Staph. aureus Russell (setting [6]), less than 0.01 µg/mL; with Staph. aureus Russell (Inhibitor alone), 16 µg/mL (≈ 44.8 µM).

On to `O=C(O)[C@H]1/C(=C/CN2CCN(c3ccccc3)CC2)O[C@@H]2CC(=O)N21` [Example 15, 9-(4-Phenylpiperazin-l-yl)deoxyclavulanic acid], for which the MIC with S. aureus Russell (setting [3]) was 0.16 µg/mL; in the assay on K. aerogenes E70 (setting [3]), 12.5 µg/mL; in the assay with K. aerogenes E70 (setting [4]), 6.2 µg/mL; with E. coli JT39 [1] (setting [3]), 31.2 µg/mL; in the assay with E. coli JT39 [1] (setting [4]), 4.0 µg/mL.

For `CC1CN(C/C=C2\O[C@@H]3CC(=O)N3[C@H]2C(=O)O)CC(C)O1` (stereo partly shown) [Example 13, 9-(2,6-DimethyLmorpholino)deoxyclavulanic acid], the MIC with S. aureus Russell (setting [3]) stood at 1.25 µg/mL; with S. aureus Russell (setting [4]), 0.3 µg/mL; with K. aerogenes E70 (setting [3]), 6.2 µg/mL; with K. aerogenes E70 (setting [4]), 1.5 µg/mL; in the assay on E. coli JT39 [1] (setting [3]), 31.2 µg/mL; with E. coli JT39 [1] (setting [4]) it was 4.0 µg/mL.

On to `CC1(C)S[C@@H]2[C@H](NC(=O)[C@H](N)c3ccccc3)C(=O)N2[C@H]1C(=O)O` [Ampicillin, ampicillin, reference compound], for which the MIC in the assay with E. coli JT39 [2] (Ampicillin alone) was greater than 2000 µg/mL; with Kleb. aerogenes E70 (Ampicillin alone), 1000 µg/mL (≈ 2860 µM); in the assay with Staph. aureus Russell (Ampicillin alone), 1000 µg/mL (≈ 2860 µM).

With `CC1(C)S[C@@H]2[C@H](NC(=O)[C@H](N)c3ccc(O)cc3)C(=O)N2[C@H]1C(=O)O` [Amoxycillin, reference compound], the MIC in the assay on S. aureus Russell (Amoxycillin alone), with K. aerogenes E70 (Amoxycillin alone) and in the assay on E. coli JT39 [1] (Amoxycillin alone) was 500 µg/mL (≈ 1370 µM) in each case.

In the case of `O=C(O)[C@H]1/C(=C/CN2CCOCC2)O[C@@H]2CC(=O)N21` [Example 11, 9-(Morpholino)deoxyclavulanic acid], the MIC in the assay with S. aureus Russell (setting [3]) was 0.6 µg/mL; in the assay with S. aureus Russell (setting [4]) it was 0.15 µg/mL; in the assay with K. aerogenes E70 (setting [3]), 3.1 µg/mL; in the assay on K. aerogenes E70 (setting [4]) it was 1.5 µg/mL; with E. coli JT39 [1] (setting [3]), 16.0 µg/mL; in the assay on E. coli JT39 [1] (setting [4]) it was 4.0 µg/mL.

For the origin of these results see patent publication EP0028083A1, “Derivatives of clavulanic acid, a process for their preparation and pharmaceutical compositions containing them” (BEECHAM GROUP PLC, priority 1979, dated 1981).
